Data taken from US20020150968A1, “Glycoconjugate and sugar nucleotide synthesis using solid supports” (priority 2001, published 2002).
Read-outs that look alike come from different tables or passages of the source.

Tests used:
Sucrose synthase II = conditions: cited from earlier work
CMP-NeuNAc synthetase = target: T1, CMP-NeuNAc synthetase (Escherichia coli O18:K1:H7, UniProt P13266); conditions: enzyme purified from E. coli K1; read-out: apparent Km; cited from earlier work
T1 construct: host or cells: E. coli K1
T1 sequence (P13266 whole entry): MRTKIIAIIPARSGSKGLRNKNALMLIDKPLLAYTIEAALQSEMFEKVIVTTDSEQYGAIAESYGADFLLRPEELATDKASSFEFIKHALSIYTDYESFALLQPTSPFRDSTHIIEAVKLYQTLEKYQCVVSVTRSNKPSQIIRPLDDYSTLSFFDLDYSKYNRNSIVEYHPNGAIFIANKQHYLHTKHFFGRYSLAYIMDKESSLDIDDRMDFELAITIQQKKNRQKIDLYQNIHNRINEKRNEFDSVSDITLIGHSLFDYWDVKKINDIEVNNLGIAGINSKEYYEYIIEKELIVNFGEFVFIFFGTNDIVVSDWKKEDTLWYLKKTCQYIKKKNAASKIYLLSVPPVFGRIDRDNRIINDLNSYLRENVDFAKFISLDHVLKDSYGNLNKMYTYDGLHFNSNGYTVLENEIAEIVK

[1] = test system: UDP-GalNAc pyrophosphorylase; conditions: substrate of UDP-GalNAc pyrophosphorylase; cited from earlier work
spHAS = spHAS (Streptococcus pyogenes, UniProt P0C0H0); conditions: cited from earlier work
Chain of spHAS (P0C0H0 whole entry): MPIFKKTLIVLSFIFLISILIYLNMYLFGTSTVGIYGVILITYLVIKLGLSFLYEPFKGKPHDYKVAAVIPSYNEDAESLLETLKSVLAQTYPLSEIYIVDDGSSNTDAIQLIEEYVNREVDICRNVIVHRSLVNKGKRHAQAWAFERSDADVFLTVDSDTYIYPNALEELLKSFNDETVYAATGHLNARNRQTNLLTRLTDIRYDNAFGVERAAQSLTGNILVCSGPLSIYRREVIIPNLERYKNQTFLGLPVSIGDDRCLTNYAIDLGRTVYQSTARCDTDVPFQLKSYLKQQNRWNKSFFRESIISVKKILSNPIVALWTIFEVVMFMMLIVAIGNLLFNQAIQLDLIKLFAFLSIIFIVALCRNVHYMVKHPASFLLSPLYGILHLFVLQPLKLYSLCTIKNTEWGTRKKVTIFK

[2] = more active than morphine; cited from earlier work
GalT = assay: Enzymatic activity assay for GalT (two-step, UDP-glucose dehydrogenase coupled); type: biochemical, E. coli
Experimental: This was a two-step assay. In the first step, GalT catalyzed reactions were performed at room temperature (24° C.) for 15 min in a final volume of 250 μl HEPES buffer (100 mM, pH 7.4) containing 1.6 mM Gal-1-P, 2.8 mM UDP-glucose, and 100 μl of enzyme solution. A blank was performed with water replacing Gal-1-P. The reaction was stopped by adding cold NaCl solution (0.5 ml, 0.15 M) and immediately transferring the tube to a boiling water bath for 5 min to terminate the reaction. The contents of the tubes were cooled to room temperature and vortexed vigorously to break up the coagulum. After centrifugation at 1400×g for 15 min, the clear supernatant (0.2 ml) was subjected to the UDP-glucose assay in a cuvette with a total volume of 1 ml containing 0.03 M Tris-acetate buffer, pH 8.7, 1.36 mM NAD, 0.2 ml sample (supernatant from the previous procedure) and 3.2 mU UDP-glucose dehydrogenase. The OD change at 340 nm was monitored by a UV spectrophotometer (HP 8453 Spectrophotometer, Hewlett-Packard Corn.).

GalU = GalU (Escherichia coli, UniProt P0AEP3); assay: Enzymatic activity assay for GalU (two-step, UDP-glucose dehydrogenase coupled); type: biochemical, E. coli
Chain of GalU (P0AEP3 whole entry): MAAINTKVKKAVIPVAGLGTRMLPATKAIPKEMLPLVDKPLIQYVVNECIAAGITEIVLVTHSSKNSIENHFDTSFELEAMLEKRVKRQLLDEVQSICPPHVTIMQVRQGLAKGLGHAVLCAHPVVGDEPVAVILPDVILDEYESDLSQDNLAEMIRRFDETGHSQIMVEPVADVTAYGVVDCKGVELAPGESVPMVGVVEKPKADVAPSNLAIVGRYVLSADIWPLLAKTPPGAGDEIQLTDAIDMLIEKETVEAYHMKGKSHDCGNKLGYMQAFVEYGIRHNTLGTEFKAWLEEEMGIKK
Experimental: A two-step assay was carried out to detect the GalU activity. In the first step, GalU catalyzed reactions were performed at room temperature (24° C.) for 15 min in a final volume of 250 μl containing 1.6 mM Glc-1-P, 2.8 mM UTP, 10 mM MgCl2 and 100 μl enzyme solution. A blank was performed with water replacing Glc-1-P. The reaction was stopped by adding cold NaCl solution (0.5 ml, 0.15 M) and immediately transferring the tube to a boiling water bath for 5 min to terminate the reaction. The contents of the tubes were cooled to room temperature and vortexed vigorously to break up the coagulum. After centrifuge at 1400×g for 15 min, the clear supernatant (0.2 ml) was subjected to the UDP-glucose assay in a cuvette with a total volume of 1 ml containing 0.03 M Tris-acetate buffer, pH 8.7, 1.36 mM NAD, 0.2 ml sample (supernatant from the previous procedure) and 3.2 mU UDP-glucose dehydrogenase. The OD change at 340 nm was monitored by a UV spectrophotometer (HP 8453 Spectrophotometer, Hewlett-Packard Corn.).

[3] = 25 ml lysate per 1 L cell culture
[4] = purified His-tagged enzyme, 1 U = 1 μmole product per minute at 24° C.

Nc1ncnc2c1ncn2[C@@H]1O[C@H](COP(=O)(O)OP(=O)(O)OP(=O)(O)O)[C@@H](O)[C@H]1O [ATP, adenosine 5′-triphosphate]
effect on enzyme activity (Sucrose synthase II; both directions, in the presence of uridine substrate (UDP-Glc or UDP)): strong inhibition

Nc1ccn([C@@H]2O[C@H](COP(=O)(O)OP(=O)(O)OP(=O)(O)O)[C@@H](O)[C@H]2O)c(=O)n1 [CTP, Cytosine 5′-triphosphate]
Km (CMP-NeuNAc synthetase): 310 µM

CC(=O)N[C@H]1C(OP(=O)(O)O)O[C@H](CO)[C@H](O)[C@@H]1O (stereo partly shown) [GalNAc-1-P, N-acetylgalactosamine-1-phosphate]
Km [1]: 290 µM

CC(=O)NC1C(OP(=O)(O)O)OC(CO)C(O)C1O (stereo not shown) [GlcNAc-1-P]
Km [1]: 1100 µM

[Mg+2] [Mg^2+]
effect on enzyme activity (Sucrose synthase II; sucrose-cleavage direction): little effect

[Mn+2] [Mn^2+]
effect on enzyme activity (Sucrose synthase II; sucrose-cleavage direction): strongly inhibited

O=C(O)[C@H]1O[C@H](OP(=O)(O)OP(=O)(O)OC[C@H]2O[C@@H](n3ccc(=O)[nH]c3=O)[C@H](O)[C@@H]2O)[C@H](O)[C@@H](O)[C@@H]1O [UDP-GlcA, uridine 5′-diphosphoglucuronic acid]
Km (spHAS): 40 ± 4 µM

CC(=O)N[C@H]1[C@@H](OP(=O)(O)OP(=O)(O)OC[C@H]2O[C@@H](n3ccc(=O)[nH]c3=O)[C@H](O)[C@@H]2O)O[C@H](CO)[C@@H](O)[C@@H]1O [UDP-GlcNAc, uridine 5′-diphospho-N-acetylglucosamine]
Km (spHAS): 149 ± 3 µM

CN1CC[C@]23c4c5ccc(O)c4O[C@H]2[C@@H](O[C@@H]2O[C@H](C(=O)O)[C@@H](O)[C@H](O)[C@H]2O)C=C[C@H]3[C@H]1C5 [morphine-6-O-glucuronide]
activity relative to morphine [2]: 50 times

B1: GalT: galactose-1-phosphate uridylyltransferase, E. coli, N-terminal six-histidine tag (protein, UniProt P09148 1-348, looked up)
Galactose-1-phosphate …: MTQFNPVDHPHRRYNPLTGQWILVSPHRAKRPWQGAQETPAKQVLPAHDPDCFLCAGNVRVTGDKNPDYTGTYVFTNDFAALMSDTPDAPESHDPLMRCQSARGTSRVICFSPDHSKTLPELSVAALTEIVKTWQEQTAELGKTYPWVQVFENKGAAMGCSNPHPHGQIWANSFLPNEAEREDRLQKEYFAEQKSPMLVDYVQRELADGSRTVVETEHWLAVVPYWAAWPFETLLLPKAHVLRITDLTDAQRSDLALALKKLTSRYDNLFQCSFPYSMGWHGAPFNGEENQHWQLHAHFYPPLLRSATVRKFMVGYEMLAETQRDLTAEQAAERLRAVSDIHFRESGV
modifications: N-terminal His6 tag
notes: galactose-1-phosphate uridylyltransferase, E. coli, N-terminal six-histidine tag
activity of enzyme in the cell lysate (GalT; [3]): 100 U/L | specific activity (GalT; [4]): 5 U/mg

B2: GalU: glucose-1-phosphate uridylyltransferase, E. coli, N-terminal six-histidine tag (protein, UniProt P0AEP3 2-302, looked up)
UTP--glucose-1-phosphate …: AAINTKVKKAVIPVAGLGTRMLPATKAIPKEMLPLVDKPLIQYVVNECIAAGITEIVLVTHSSKNSIENHFDTSFELEAMLEKRVKRQLLDEVQSICPPHVTIMQVRQGLAKGLGHAVLCAHPVVGDEPVAVILPDVILDEYESDLSQDNLAEMIRRFDETGHSQIMVEPVADVTAYGVVDCKGVELAPGESVPMVGVVEKPKADVAPSNLAIVGRYVLSADIWPLLAKTPPGAGDEIQLTDAIDMLIEKETVEAYHMKGKSHDCGNKLGYMQAFVEYGIRHNTLGTEFKAWLEEEMGIKK
modifications: N-terminal His6 tag
notes: glucose-1-phosphate uridylyltransferase, E. coli, N-terminal six-histidine tag
activity of enzyme in the cell lysate (GalU; [3]): 100 U/L | specific activity (GalU; [4]): 10 U/mg
